Laboratory results reported in US8575352B2, “Benzyl sulfonamide derivatives useful as MOGAT-2 inhibitors” (Eli Lilly and Company, priority 2012, dated 2013).
Counter-ions that a name gives are not always drawn.

Key:
[1] = tested on: plasma triglyceride (TAG) secretion from the intestine; test: Dog Oil Bolus Model (plasma triglyceride after olive oil bolus); assay type: in vivo, dog (male beagles); conditions: olive oil bolus 5 ml/kg; for reduction of 18:1 TAG (plasma TAG 18:1 18:1 18:1 net AUC): 18:1 TAG by LC/MS/MS
Text: Inhibiting MOGAT-2 found in the small intestine may be useful for treating hypertriglyceridemia caused by excessive fat intake Inhibition of MOGAT-2 disrupts resynthesis of triglycerides, which reduces secretion of triglycerides from the intestine. Therefore, MOGAT-2 inhibition interferes with a specific process that leads to eventual secretion of triglycerides into the intestine for eventual circulation through the body. To assess the ability of one or more of the exemplified compounds to inhibit MOGAT-2 induced TAG secretion into the intestine as measured in the blood system, the following protocol can be followed.
Twenty one male beagles (n=7 per treatment group) are enrolled for each study, each dog selected to have a body weight between 9-13 kg. House the dogs in cages with a standard light cycle (12 hours light and 12 hours dark); at room temperature: 72±8° F.; and at 30%-70% relative humidity. Fast the dogs for 16 hours prior to the start of the study, then dose the fasted dogs with vehicle (1% HEC, 0.25%, Tween 80, Antifoam) or one of the test compounds in that vehicle. Bleed the dogs one hour after dosing, (0.5 ml from the jugular vein) for a time 0 sample. Dose the dogs with olive oil (Sigma Catalog#: O-1514, 5 ml/kg) immediately after collection of the time 0 sample. Collect samples into an EDTA tube on ice at 1.5, 2, 3, 5, 7, and 9 hrs post compound/vehicle dosing. Centrifuge the samples at […] for 15 min and analyze (Roche Cat no. 1877771) for plasma total triglyceride using a Roche Hitachi 917. For plasma TAG 18.1—18.1—18.1 measurement, extract the samples and perform LC/MS/MS analysis similarly to that described above in MOGAT-2 Cell Assay using 10 μL of plasma/.
The analyte is the [M+NH4]+ ion of TAG 18:1 18:1 18:1, which has a mass of 902.8 m/z; the internal standard is D5 TAG 16:0 16:0 16:0, which has a mass of 829.8 m/z. Report the ratio of the 603.5 m/z daughter ion of 902.8 m/z (TAG 18:1 18:1 18:1) and the 556.5 m/z daughter ion of 829.8 m/z (D5 TAG 16:0 16:0 16:0 internal standard) changes in TAG 18:1 18:1 18:1 relative amount. Calculate the net plasma TAG AUC from total TAG AUC minus baseline TAG AUC using Graphpad Prism4: (Net AUCTAG=AUCTAG post oil bolus−AUCTAG at 0 hour). The percent inhibition of plasma triglyceride is calculated as follows: the (oil bolus group mean of net TAG AUC−oil bolus group mean of net TAG AUC with compound treatment/oil bolus group mean of net TAG AUC)*100. The final statistic analysis uses Dunnett's method of One way Anova for comparison with the control. All Net TAG AUC values are transformed to ranked averaged AUC for comparison to limit the variability within the studies.

human MOGAT-2 [2] = target: T1, human MOGAT-2 (Homo sapiens, UniProt Q3SYC2); test: Inhibitory Activity in MOGAT-2 Cell Assay (Caco-2 cells stably transfected with human MOGAT-2, HDG substrate, LC-MS); assay type: cell-based; set-up: expressed in transfected cells; conditions: Caco-2 cells expressing human MOGAT-2, HDG/DOPC, 4 hours; read-out: IC50 nM (Std Dev., n*)
T1 sequence (Q3SYC2 whole entry): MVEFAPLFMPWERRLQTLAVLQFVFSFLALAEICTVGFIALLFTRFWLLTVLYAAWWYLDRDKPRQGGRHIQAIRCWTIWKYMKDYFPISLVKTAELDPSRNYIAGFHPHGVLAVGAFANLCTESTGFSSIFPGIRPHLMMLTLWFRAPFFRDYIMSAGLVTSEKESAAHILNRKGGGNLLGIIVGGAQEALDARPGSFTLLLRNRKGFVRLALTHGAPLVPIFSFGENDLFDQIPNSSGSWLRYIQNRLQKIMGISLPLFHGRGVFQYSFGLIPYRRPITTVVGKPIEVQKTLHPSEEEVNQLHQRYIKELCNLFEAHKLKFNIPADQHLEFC
Protocol: The inhibitory activity of compounds against human MOGAT-2 in a cell environment is evaluated in this assay. Caco-2 is a human colon carcinoma cell line and is often used as a model for intestinal epithelial cells. […] A MAG analogue, 2-O-Hexadecylglycerol (HDG), is utilized to detect cellular MOGAT-2 activity, because HDG is not hydrolyzed and the resulting product is readily monitored by mass spectrometry. The substrate is delivered to cells using as a mixture with DOPC in the form of sonicated vesicles.
Seed the Caco2 cells onto 100 mm dishes to be 80% confluent after 24 hours in complete media (3/1 DMEM: F12+10% FBS+20 mM HEPES+gentamicin). Transfect the cells with hMOGAT-2 plasmid (MOGAT-2-pcDNA3.1-Hygro) using Lipofectamine 2000 (Invitrogen). After a 6 hour exposure to the transfection mixture, wash the cells three times in PBS and then add media. Incubate the cells for an additional 18 hours incubation, trypsinize the cells and serially dilute them into 100 mm dishes. Add complete media+400 μg/ml hygromycin and incubate until clones appear. Isolate and transfer the clones into 24 well dishes and grow to confluency. Prepare the RNAs from these clones using a Qiagen RNAeasy kit. Perform Taqman analysis using an ABI inventoried assay (HS00228262) on a 7900 Sequence Detection System (ABI). Analyze the lysates from these clones by Western blot analysis using a goat polyclonal antibody (Santa Cruz, SC-32392 to confirm human MOGAT-2 expression of a 38 kD protein corresponding to MOGAT-2.
Mix 2-O-hexadecylglycerol (“HDG”, Biosynth Chemistry & Biology, #H-1806, 562.7 μl of 20 mg/ml) and DOPC (14.3 ml of 20 mg/ml) in chloroform in a glass tube; dry first under N2 gas; and then under reduced pressure for additional 30 minutes. Add 20 ml of buffer (150 mM Tris-Cl pH 7.4, 250 mM sucrose, 1 mM EDTA) to the dried HDG/DOPC mixture while sonicating until the solution becomes clear. Plate the Caco2 cells into a poly-D-lysine coated 96-well plate (the “Cell Plate”) at 37° C., 5% CO2 overnight. Remove the growth media and pretreat the cells with the test compound in DMEMF12 (3:1) media (GIBCO 93-0152DK) containing 2% BSA (Sigma) for 30 minutes. Treat the cells with one test compound in 2% BSA DMEMF12 (3:1) media containing 40 μM of oleic acid and 800 μM of 8.9:91.9 (molar ratio) HDG/DOPC for 4 hours. Trypsinize the cells with 50 μl of trypsin solution and add 50 μl of PBS. Immediately freeze the cells on dry ice and store at −20° C. for LC-MS analysis. Extract the cells with chloroform/methanol as follows: transfer the cells to a 2 ml plate; wash the cell plate with 200 μL methanol and then transfer the methanol wash to the 2 ml plate; wash the cell plate again with 200 μL PBS and transfer the PBS wash to the 2 ml plate. Add chloroform (400 μL) with internal standard (19.52 ng/mL) DAG (15:0, 15:0 (Sigma)), D5-TAG (39.03 ng/mL) CDN (16, 16, 16) to the 2 mL Plate. Turn the sealed 2 mL Plate up and down (10×), then vortex and spin. Remove 400 μL of the lower layer from the 2 mL plate and add to the wells of another plate the “Final Plate”. Add CHCl3:MeOH (400 μL 2:1) to the 2 mL Plate. Again turn the sealed 2 mL Plate up and down (10×), vortex and spin. Remove 220 μL of the lower layer from the 2 mL Plate and add to the Final Plate. Dry the Final Plate and reconstitute with […] of IPA. Seal the Final Plate and shake for 5 min. […]

human MOGAT-2 [3] = target: T1, human MOGAT-2; test: MOGAT-2 Inhibitory Assay (in vitro, SF9 cell lysate, 14C-oleoyl-CoA, Microscint extraction); assay type: biochemical; set-up: made in house; host or cells: insect SF9 cells (crude lysate supernatant); conditions: SF9 cell extract expressing human MOGAT-2, 90 min, room temperature
Protocol: The in vitro inhibitory activity of compounds against human MOGAT-2 is evaluated in this assay. MOGAT-2 transfers an oleoyl group to monooleoyl-glycerol (“MAG”) from oleoyl-CoA to form dioleoyl-glycerol (“DAG”) in the intestinal triglyceride resynthesis pathway. The assay takes advantage of Microscint Extraction, which extracts hydrophobic molecules selectively over hydrophilic ones to separate the ^14C-oleoyl-CoA from ^14C-DAG.
Genetically engineered insect SF9 cells express human MOGAT-2. Prepare the cell lysate in 20 mM of NaCl with protease inhibitor (Roche Cat #11873580001). Homogenize the SF9 cells expressing human MOGAT-2 at 15,000 rpm for 20×2 seconds (PT-3100 Polytrone). Centrifuge the homogenate at 1000 g for 10 minutes at 4° C. Collect the supernatant into a separate tube for protein quantification and activity testing. Purify the glycerol monooleate substrate (Spectrum Chemical, CAS#25496-72-4) chromatographically. Prepare the monoacylglyerol (MAG) substrate in phospholipid vescicles (dioleoyl phosphatidylcholine “DOPC”). Prepare the MAG/DOPC vesicles at 20 mM concentration of total lipids (MAG and DOPC). Prepare different molar ratios of MAG to total lipids for either compound screening (8.9%) or compound kinetic studies (2.6-40%). Mix the appropriate amount of purified MAG and DOPC (Avanti Polar Lipids #850375C) in chloroform in a glass tube. […]

| Structure (SMILES) | reduction of 18:1 TAG (plasma TAG 18:1 18:1 18:1 net AUC) ([1]; 30 mg/kg) | reduction of TAG secretion (percent inhibition of plasma total triglyceride net AUC) ([1]; 30 mg/kg, total TAG) | reduction of 18:1 TAG (plasma TAG 18:1 18:1 18:1 net AUC) ([1]; 60 mg/kg) | reduction of TAG secretion/absorption (percent inhibition of plasma total triglyceride net AUC) ([1]; 60 mg/kg, total TAG) | IC50 (human MOGAT-2 [2]) | IC50 (human MOGAT-2 [3]) |
| --- | --- | --- | --- | --- | --- | --- |
| COC[C@H](CNCc1ccc([C@H](NS(C)(=O)=O)C(F)(F)F)cc1)Oc1ccc(F)cn1.Cl [Example 1, N-[(1S)-2,2,2-Trifluoro-1-{4-[({(2S)-2-[(5-fluoropyridin-2-yl)oxy]-3-methoxypropyl}amino)methyl]phenyl}ethyl]methanesulfonamide hydrochloride] | 64% | 61% | 76% | 77% | 30.6 nM | 2 nM |
| C[C@H](CNCc1ccc([C@H](NS(C)(=O)=O)C(F)(F)F)cc1)Oc1ccccn1 [Example 3, N-{(1S)-2,2,2-Trifluoro-1-[4-({[(2R)-2-(pyridin-2-yloxy)propyl]amino}-methyl)phenyl]ethyl}-methanesulfonamide hydrochloride] | – | – | – | – | 14.4 nM | – |
| COC[C@H](CNCc1ccc([C@H](NS(C)(=O)=O)C(F)(F)F)cc1)Oc1ccccn1 [Example 5, N-{(1S)-2,2,2-Trifluoro-1-[4-({[(2S)-3-methoxy-2-(pyridin-2-yloxy)propyl]amino}-methyl)phenyl]ethyl}-methanesulfonamide hydrochloride (1:1)] | – | – | – | – | 44.6 nM | – |
| CS(=O)(=O)N[C@@H](c1ccc(CNCCOc2ccc(F)cn2)cc1)C(F)(F)F [Example 17, N-[(1S)-2,2,2-Trifluoro-1-{4-[({2-[(5-fluoropyridin-2-yl)oxy]ethyl}amino)-methyl]phenyl}ethyl]-methanesulfonamide hydrochloride] | – | – | – | – | 45.5 nM | – |
| C[C@H](CNCc1ccc([C@H](NS(C)(=O)=O)C(F)(F)F)cc1)Oc1ccc(F)cn1.Cl [Example 36, N-[(1S)-2,2,2-Trifluoro-1-{4-[({(2r)-2-[(5-fluoropyridin-2-yl)oxy]propyl}amino)methyl]phenyl}ethyl]-methanesulfonamide hydrochloride] | – | – | 43% | 38% | 36.1 nM | – |
